Reference: US10473645B2, “Methods for identifying a receptor for a ligand and uses thereof” (UNIVERSITE DE GENEVE, priority 2014, dated 2019)

Assays:
OR67c [1] = biological target: T1, OR67c (Drosophila melanogaster, UniProt Q9VT90); details: Hallem and Carlson, 2006; cited from earlier work
OR67c [2] = biological target: T1, OR67c; assay: Drosophila OR transcript level by RT-qPCR after odorant exposure; type: in vivo, Drosphila melanogaster; parameters: from tissue; host or cells: olfactory neurons of living W1118 flies (heads / antennae collected for RNA); details: 5% odorant in DMSO, 5 hours, fly heads
Protocol: (§1) Drosophila (W1118) were collected between 0 and 14 hours after hatching. Males and females were exposed separately.
(§2) For flies, after exposure, vials containing the animals were placed upside down in a −80° C. freezer for five minutes, then kept in a −20° C. freezer until dissection. Whole heads were removed by hand and placed in a screw-cap tube containing 1 ml of Trizol (Ambion) and a 0.5 cm diameter steel ball, and kept on ice. Samples were homogenized using four runs of 15 s at 6 m/s on a FastPrep®-24 instrument (MP Biomedicals).
(§3) Samples were cooled on ice between each run. RNA extraction followed the Trizol protocol according to the manufacturer instructions, and using 5 μg of RNase-free glycogen as carrier for RNA precipitation. The RNA pellet was resuspended in 20 μl of RNase-free water and a DNAse treatment (Life Technologies Ambion DNase I®) was performed.
(§4) 24 hours-old Drosphila melanogaster flies were kept in plastic tubes and exposed to either 5% ethyl lactate diluted in DMSO or to 5% geranyl acetate diluted in DMSO. The odorants were spotted on papers that were introduced into the plastic tubes. 10 flies were used per condition (8 independent extracts per condition). 5 hours after exposure heads were collected and RNA extracted.
(§5) The transcript levels for Or67c (a known receptor for ethyl lactate) and Or82a (a known receptor for geranyl acetate) were evaluated by RT-qPCR.

OR82a [3] = biological target: T2, OR82a (Drosophila melanogaster, UniProt P82986); details: Hallem and Carlson, 2006; cited from earlier work
OR82a [4] = biological target: T2, OR82a; assay: Drosophila OR transcript level by RT-qPCR after odorant exposure; type: in vivo, Drosphila melanogaster; parameters: from tissue; host or cells: olfactory neurons of living W1118 flies (heads / antennae collected for RNA); details: 5% odorant in DMSO, 5 hours, fly heads
Protocol: as §1, §2, §3, §4, §5

T1 sequence (Q9VT90 whole entry): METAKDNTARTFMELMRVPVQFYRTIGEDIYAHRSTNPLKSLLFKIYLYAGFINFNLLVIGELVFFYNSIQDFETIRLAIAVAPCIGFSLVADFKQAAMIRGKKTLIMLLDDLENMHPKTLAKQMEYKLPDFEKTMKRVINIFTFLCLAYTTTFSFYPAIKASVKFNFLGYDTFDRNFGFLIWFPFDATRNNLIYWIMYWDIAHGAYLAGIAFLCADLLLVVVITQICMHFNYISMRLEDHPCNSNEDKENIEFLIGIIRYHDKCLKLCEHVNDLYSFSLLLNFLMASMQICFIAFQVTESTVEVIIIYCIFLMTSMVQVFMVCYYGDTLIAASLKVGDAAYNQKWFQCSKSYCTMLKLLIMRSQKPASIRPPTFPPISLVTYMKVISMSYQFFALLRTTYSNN
T1 sequence (Q9VNB5 whole entry partner): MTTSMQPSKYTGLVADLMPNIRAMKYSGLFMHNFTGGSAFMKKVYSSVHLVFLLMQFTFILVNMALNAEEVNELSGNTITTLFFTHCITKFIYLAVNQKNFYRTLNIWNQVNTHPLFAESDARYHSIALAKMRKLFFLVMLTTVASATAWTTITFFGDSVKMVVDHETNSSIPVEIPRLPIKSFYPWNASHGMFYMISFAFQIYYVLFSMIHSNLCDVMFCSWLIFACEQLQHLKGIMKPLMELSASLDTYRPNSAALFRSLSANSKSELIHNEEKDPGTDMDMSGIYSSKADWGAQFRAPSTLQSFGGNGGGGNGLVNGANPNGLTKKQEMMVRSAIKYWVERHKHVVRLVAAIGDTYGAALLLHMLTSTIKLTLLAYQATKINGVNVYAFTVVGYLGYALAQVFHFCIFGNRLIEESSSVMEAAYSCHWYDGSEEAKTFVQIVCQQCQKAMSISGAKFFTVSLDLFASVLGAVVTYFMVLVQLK
T2 sequence (P82986 whole entry): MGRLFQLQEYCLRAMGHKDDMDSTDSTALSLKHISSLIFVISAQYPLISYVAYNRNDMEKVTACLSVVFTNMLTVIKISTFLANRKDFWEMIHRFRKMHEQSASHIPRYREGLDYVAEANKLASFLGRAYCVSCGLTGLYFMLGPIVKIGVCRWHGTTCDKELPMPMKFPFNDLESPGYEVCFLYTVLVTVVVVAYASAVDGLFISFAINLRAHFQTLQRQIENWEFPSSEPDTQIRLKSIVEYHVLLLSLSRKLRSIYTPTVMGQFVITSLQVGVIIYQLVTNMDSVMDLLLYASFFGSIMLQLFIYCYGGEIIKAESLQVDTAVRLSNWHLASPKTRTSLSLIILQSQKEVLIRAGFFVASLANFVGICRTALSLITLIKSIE
T2 sequence (Q9VNB5 whole entry partner): as the sequence (Q9VNB5 whole entry partner) above

| Compound | OR67c response previously shown (OR67c [1]) | Or67c mRNA level relative to control ORs (OR67c [2]) | OR82a response previously shown (OR82a [3]) | Or82a mRNA level relative to control ORs (OR82a [4]) |
| --- | --- | --- | --- | --- |
| CCOC(=O)C(C)O (stereo not shown) [ethyl lactate] | respond | 0.7 × | – | – |
| CC(=O)OC/C=C(\C)CCC=C(C)C [geranyl acetate] | – | – | respond | 0.6 × |
